Assay results as given in patent US5698565A, “Use of phenoxy-pyridine derivatives” (Hoffmann-La Roche Inc., priority 1995, dated 1997).

Molecular target: T1, dopamine-D4 receptor (Homo sapiens, UniProt P21917)
T1 construct: expressed in transfected cells; host or cells: CHO (Chinese Hamster Ovary) cells, D4-CHO; crude membranes
Experiment: [3H]-spiperone binding at the D4 receptor, membranes of D4-CHO cells
Details: crude membranes from D4-CHO cells, 200 pM [3H]-spiperone, room temperature, 90 minutes
Procedure: Compounds of formula I were characterized by their binding behavior at the D4 receptor.
CHO cells (Chinese Hamster Ovary) were used in the test. Crude membranes were isolated by ultracentrifugation from D4 -CHO and D2 -CHO cells and were stored at -80° C. After thawing and homogenizing in a buffer solution (50 mM Tris, 1 mM EDTA, 5 mM KCl, 1.5 mM CaCl2, 4 mM MgCl2, pH 7.4) they were incubated at room temperature for 90 minutes with 200 pM [3H]-spiperone and an increasing concentration (1×10^-11 M to 1×10^-4 M) of test compound. A non-specific binding was established by incubating in the presence of 1×10^-5 M (+)-butaclamol. The unbound radioligand was removed by filtration through a GF/C glass filter and the bound radioactivity was determined by scintillation in a Packard TopCount.
The calculation of the value was effected with ligand.

T1 sequence (P21917 whole entry): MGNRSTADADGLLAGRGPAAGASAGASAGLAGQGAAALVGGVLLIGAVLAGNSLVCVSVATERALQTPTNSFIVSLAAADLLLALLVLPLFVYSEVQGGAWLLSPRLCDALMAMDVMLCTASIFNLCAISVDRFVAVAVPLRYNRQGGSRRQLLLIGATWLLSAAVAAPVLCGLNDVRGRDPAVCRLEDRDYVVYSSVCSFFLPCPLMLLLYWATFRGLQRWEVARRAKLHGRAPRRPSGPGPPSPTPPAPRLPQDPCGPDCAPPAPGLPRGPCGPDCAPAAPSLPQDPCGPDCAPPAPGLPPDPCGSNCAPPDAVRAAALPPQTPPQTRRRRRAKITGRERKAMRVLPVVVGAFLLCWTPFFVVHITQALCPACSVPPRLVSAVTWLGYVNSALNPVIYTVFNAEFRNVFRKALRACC

| SMILES | Ki [nM] |
| --- | --- |
| Cc1cccc(OCC(O)CN2CC=C(c3ccccc3)CC2)c1 (centres unmarked) [Compound 1, 1-(4-Phenyl-3,6-dihydro-2H-pyridin-1-yl)-3-m-tolyloxy-5-propan-2-ol] | < 100 |
| Cc1ccccc1OCC(O)CN1CC=C(c2ccccc2)CC1 (centres unmarked) [Compound 2, 1-(4-Phenyl-3,6-dihydro-2H-pyridin-1-yl)-3-o-tolyloxy-propan-2-ol] | < 100 |
| OC(COc1cccc(C(F)(F)F)c1)CN1CC=C(c2ccccc2)CC1 (centres unmarked) [Compound 3, 1-(4-Phenyl-3,6-dihydro-2H-pyridin-1-yl)-3-(3-trifluoro-methylphenoxy)-propan-2-ol] | < 100 |
| OCc1ccccc1OCC(O)CN1CC=C(c2ccccc2)CC1 (centres unmarked) [Compound 4, 1-(2-Hydroxymethyl-phenoxy)-3-(4-phenyl-3,6-dihydro-2H-pyridin-1-yl)-propan-2-ol] | < 100 |
| COc1ccccc1OCC(O)CN1CC=C(c2ccccc2)CC1 (centres unmarked) [Compound 5, 1-(2-Methoxy-phenoxy)-3-(4-phenyl-3,6-dihydro-2H-pyridin-1-yl)-propan-2-ol] | < 100 |
| CC(=O)Nc1ccccc1OCC(O)CN1CC=C(c2ccccc2)CC1 (centres unmarked) [Compound 6, N-[2-[2-Hydroxy-3-(4-phenyl-3,6-dihydro-2H-pyridin-1-yl)-propoxy]-phenyl]-acetamide] | < 100 |
| CC(=O)c1ccccc1OCC(O)CN1CC=C(c2ccccc2)CC1 (centres unmarked) [Compound 7, 1-[2-[2-Hydroxy-3-(4-phenyl-3,6-dihydro-2H-pyridin-1-yl)-propoxy]-phenyl]-ethanone] | < 100 |
| Cc1ccc(OCC(O)CN2CC=C(c3ccccc3)CC2)cc1C (centres unmarked) [Compound 8, 1-(3,4-Dimethyl-phenoxy)-3-(4-phenyl-3,6-dihydro-2H-pyridin-1-yl)-propan-2-ol] | < 100 |
| CC(=O)Nc1cc(Cl)ccc1OCC(O)CN1CC=C(c2ccccc2)CC1 (centres unmarked) [Compound 9, N-[5-Chloro-2-[2-hydroxy-3-(4-phenyl-3,6-dihydro-2H-pyridin-1-yl)-propoxy]-phenyl]acetamide] | < 100 |
| OC(COc1cccc2ccccc12)CN1CC=C(c2ccccc2)CC1 (centres unmarked) [Compound 10, 1-(Naphthalen-1-yloxy)-3-(4-phenyl-3,6-dihydro-2H-pyridin-1-yl)-propan-2-ol] | < 100 |
| OC(COc1cccc(C(F)(F)F)c1)CN1CC=C(c2ccc(F)cc2)CC1 (centres unmarked) [Compound 11, 1-[4-(4-Fluoro-phenyl)-3,6-dihydro-2H-pyridin-1-yl)-3-(3-trifluoromethyl-phenoxy)-propan-2-ol] | < 100 |
| NC(=O)c1ccccc1OCC(O)CN1CC=C(c2ccc(F)cc2)CC1 (centres unmarked) [Compound 12, 2-[3-[4-(4-Fluoro-phenyl)-3,6-dihydro-2H-pyridinol-yl]-2-hydroxy-propoxy]-benzamide] | < 100 |
| NC(=O)Nc1ccccc1OCC(O)CN1CC=C(c2ccc(F)cc2)CC1 (centres unmarked) [Compound 13, [2-[3-[4-(4-Fluoro-phenyl)-3,6-dihydro-2H-pyridin-1-yl]-2-hydroxy-propoxy]-phenyl]-urea] | < 100 |
| CC(=O)Nc1ccccc1OCC(O)CN1CC=C(c2ccc(Cl)cc2)CC1 (centres unmarked) [Compound 14] | < 100 |
